# Results published in patent publication US10689361B2, “Quinoline derivative and use thereof” (priority 2016, dated 2020).
# Assays:
# [1] = molecular target: VEGFR2 (Homo sapiens, UniProt P35968); assay: Caliper Mobility Shift Assay, kinase inhibition; assay type: biochemical; conditions: read-out: Kinase inhibitory activity (IC50, nM) VEGFR2
# [2] = molecular target: VEGFR3 (Homo sapiens, UniProt P35916); assay: Caliper Mobility Shift Assay, kinase inhibition; assay type: biochemical; conditions: read-out: Kinase inhibitory activity (IC50, nM) VEGFR3
# Sequence of VEGFR3 (P35916 25-1363, species assumed): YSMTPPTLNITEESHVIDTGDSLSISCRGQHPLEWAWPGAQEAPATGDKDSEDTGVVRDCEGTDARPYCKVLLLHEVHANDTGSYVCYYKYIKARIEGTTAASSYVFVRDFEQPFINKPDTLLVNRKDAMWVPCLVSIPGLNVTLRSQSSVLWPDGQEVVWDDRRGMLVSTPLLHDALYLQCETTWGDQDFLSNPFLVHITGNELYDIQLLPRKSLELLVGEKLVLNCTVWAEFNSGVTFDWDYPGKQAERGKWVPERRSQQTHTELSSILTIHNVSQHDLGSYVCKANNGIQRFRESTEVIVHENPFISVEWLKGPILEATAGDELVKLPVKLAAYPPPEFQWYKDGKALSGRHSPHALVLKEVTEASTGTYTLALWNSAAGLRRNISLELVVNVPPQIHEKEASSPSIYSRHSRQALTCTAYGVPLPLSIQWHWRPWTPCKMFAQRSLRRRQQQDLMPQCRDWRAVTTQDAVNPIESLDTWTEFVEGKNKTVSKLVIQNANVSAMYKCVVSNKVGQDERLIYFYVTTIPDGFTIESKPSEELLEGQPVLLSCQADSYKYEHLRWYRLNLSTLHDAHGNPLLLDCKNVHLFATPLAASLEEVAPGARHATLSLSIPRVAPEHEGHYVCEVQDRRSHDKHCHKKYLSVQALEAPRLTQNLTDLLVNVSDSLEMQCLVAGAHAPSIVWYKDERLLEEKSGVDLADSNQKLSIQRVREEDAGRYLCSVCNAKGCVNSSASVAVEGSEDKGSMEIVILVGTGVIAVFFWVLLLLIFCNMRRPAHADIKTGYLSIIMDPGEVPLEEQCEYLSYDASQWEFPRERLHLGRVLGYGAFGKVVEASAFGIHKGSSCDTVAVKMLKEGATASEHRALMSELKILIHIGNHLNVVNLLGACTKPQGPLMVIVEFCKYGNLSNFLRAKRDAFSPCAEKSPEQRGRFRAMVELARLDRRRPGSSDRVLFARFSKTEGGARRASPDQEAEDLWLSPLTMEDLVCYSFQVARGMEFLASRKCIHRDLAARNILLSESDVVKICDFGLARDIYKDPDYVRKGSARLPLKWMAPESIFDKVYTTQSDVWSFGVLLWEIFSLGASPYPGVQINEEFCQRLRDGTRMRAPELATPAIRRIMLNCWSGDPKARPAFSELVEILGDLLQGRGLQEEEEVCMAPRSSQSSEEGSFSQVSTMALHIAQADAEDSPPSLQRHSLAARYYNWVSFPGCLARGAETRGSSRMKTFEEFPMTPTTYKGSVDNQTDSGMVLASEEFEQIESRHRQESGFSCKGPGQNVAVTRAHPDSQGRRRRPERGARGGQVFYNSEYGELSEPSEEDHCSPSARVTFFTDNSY
# [3] = molecular target: PDGFRβ (Homo sapiens, UniProt P09619); assay: Caliper Mobility Shift Assay, kinase inhibition; assay type: biochemical; conditions: read-out: Kinase inhibitory activity (IC50, nM) PDGFRβ
# [4] = Pharmacokinetic property evaluation test in CD-1 mice, intravenous; assay type: in vivo; conditions: both sexes, mouse, plasma, intravenous injection, 3 mg/kg, single administration, non-compartment model; for half-life: read-out: Terminal t1/2 (converted); for Vd: read-out: Vss
# Experimental: Experimental animals: CD-1 mice, males and females; weight: 20-25 g;
# […] Route of administration: intravenous injection. […] Dosage: 3 mg/kg.
# Sample collection: Blood was collected at the following time points: 5 min, 15 min, 30 min, 1 hr, 2 hr, 4 hr, 8 hr, and 24 hr after administration.
# Sample analysis: The collected samples were tested using the LC-MS/MS method. The instrument model was API4000.
# Pharmacokinetic data analysis: The obtained plasma concentration data were fitted and calculated according to the non-compartment model using WinNolin, and some results are summarized in Table 2.
# [5] = molecular target: PDGFRα (Homo sapiens, UniProt P16234); assay: Caliper Mobility Shift Assay, kinase inhibition; assay type: biochemical; conditions: read-out: Kinase inhibitory activity (IC50, nM) PDGFRα
# [6] = molecular target: RET (Homo sapiens, UniProt P07949); assay: Caliper Mobility Shift Assay, kinase inhibition; assay type: biochemical; conditions: read-out: Kinase inhibitory activity (IC50, nM) RET
# [7] = molecular target: FGFR1 (Homo sapiens, UniProt P11362); assay: Caliper Mobility Shift Assay, kinase inhibition; assay type: biochemical; conditions: read-out: Kinase inhibitory activity (IC50, nM) FGFR1
# Sequence of FGFR1 (P11362 22-822, species assumed): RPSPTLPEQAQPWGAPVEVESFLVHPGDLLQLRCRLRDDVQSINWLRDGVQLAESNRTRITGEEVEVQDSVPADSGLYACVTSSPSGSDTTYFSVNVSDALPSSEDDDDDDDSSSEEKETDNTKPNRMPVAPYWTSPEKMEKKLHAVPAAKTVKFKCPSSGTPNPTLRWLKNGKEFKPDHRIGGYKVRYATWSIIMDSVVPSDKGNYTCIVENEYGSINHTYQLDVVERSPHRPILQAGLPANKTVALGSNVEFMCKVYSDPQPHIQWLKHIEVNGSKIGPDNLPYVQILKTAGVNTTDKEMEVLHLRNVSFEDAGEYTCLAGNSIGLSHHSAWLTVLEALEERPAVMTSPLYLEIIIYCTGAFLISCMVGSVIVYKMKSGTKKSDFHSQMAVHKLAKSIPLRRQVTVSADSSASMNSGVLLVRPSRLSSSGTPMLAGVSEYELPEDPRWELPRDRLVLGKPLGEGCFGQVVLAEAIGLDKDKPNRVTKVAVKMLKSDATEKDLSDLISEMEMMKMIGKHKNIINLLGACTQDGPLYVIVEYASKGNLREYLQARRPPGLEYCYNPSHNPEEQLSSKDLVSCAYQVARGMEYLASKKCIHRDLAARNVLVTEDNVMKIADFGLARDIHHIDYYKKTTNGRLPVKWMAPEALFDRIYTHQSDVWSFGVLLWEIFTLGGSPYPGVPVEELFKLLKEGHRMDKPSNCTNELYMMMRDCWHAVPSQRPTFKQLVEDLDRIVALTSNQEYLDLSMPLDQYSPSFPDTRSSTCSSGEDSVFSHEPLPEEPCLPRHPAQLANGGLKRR
# [8] = molecular target: VEGFR1 (Homo sapiens, UniProt P17948); assay: Caliper Mobility Shift Assay, kinase inhibition; assay type: biochemical; conditions: read-out: Kinase inhibitory activity (IC50, nM) VEGFR1
# [9] = molecular target: IGF1R (Homo sapiens, UniProt P08069); assay: Caliper Mobility Shift Assay, kinase inhibition; assay type: biochemical; conditions: read-out: Kinase inhibitory activity (IC50, nM) IGF1R
# Experimental: (§1) The semi-inhibitory concentration IC50 (the concentration of the compound required to inhibit the enzymatic activity to 50%) of a compound was measured by mixing a fixed enzyme with a specific substrate and the test compound of different concentrations. The test method used was Caliper Mobility Shift Assay, the kinases tested were VEGFR1, VEGFR2, VEGFR3, FLT3, PDGFRα, PDGFRβ, FGFR1, RET, EGFR and IGF1R, and the standard reference compound used was staurosporine.
# [10] = molecular target: EGFR (Homo sapiens, UniProt P00533); assay: Caliper Mobility Shift Assay, kinase inhibition; assay type: biochemical; conditions: read-out: Kinase inhibitory activity (IC50, nM) EGFR
# Sequence of EGFR (P00533 25-1210, species assumed): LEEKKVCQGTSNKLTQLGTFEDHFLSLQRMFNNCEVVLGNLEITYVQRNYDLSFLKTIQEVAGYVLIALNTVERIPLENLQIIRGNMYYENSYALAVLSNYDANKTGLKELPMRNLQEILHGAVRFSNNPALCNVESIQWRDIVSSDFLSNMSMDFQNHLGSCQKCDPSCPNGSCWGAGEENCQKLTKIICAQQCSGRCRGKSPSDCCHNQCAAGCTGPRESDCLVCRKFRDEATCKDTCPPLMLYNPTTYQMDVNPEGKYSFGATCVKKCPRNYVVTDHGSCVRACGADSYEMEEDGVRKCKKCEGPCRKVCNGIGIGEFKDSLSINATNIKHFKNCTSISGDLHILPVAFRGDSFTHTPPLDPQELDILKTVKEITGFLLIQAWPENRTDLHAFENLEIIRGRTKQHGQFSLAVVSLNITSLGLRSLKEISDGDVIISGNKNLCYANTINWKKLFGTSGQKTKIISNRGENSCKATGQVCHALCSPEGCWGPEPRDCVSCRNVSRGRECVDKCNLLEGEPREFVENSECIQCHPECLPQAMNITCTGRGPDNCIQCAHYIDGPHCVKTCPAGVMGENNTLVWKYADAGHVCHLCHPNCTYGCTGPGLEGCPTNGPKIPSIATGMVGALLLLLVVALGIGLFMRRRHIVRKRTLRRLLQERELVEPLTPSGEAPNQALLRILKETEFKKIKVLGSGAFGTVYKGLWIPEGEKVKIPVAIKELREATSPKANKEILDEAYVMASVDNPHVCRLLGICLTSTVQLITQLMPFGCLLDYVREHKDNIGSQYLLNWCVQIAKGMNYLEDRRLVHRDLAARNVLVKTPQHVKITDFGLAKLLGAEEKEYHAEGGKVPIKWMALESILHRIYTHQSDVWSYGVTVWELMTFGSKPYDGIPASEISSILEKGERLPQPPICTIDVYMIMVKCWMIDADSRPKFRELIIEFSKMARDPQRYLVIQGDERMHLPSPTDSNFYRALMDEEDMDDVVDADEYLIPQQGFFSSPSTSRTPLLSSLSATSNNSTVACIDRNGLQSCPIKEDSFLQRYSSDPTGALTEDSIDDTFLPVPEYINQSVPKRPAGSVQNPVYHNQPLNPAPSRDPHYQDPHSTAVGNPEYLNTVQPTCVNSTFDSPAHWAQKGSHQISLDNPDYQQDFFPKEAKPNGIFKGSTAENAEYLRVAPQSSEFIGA
# Experimental: as §1
# [11] = molecular target: T1, FLT3 (Homo sapiens, UniProt P36888); assay: Caliper Mobility Shift Assay, kinase inhibition; assay type: biochemical; conditions: read-out: Kinase inhibitory activity (IC50, nM) FLT3
# T1 sequence (P36888 27-993): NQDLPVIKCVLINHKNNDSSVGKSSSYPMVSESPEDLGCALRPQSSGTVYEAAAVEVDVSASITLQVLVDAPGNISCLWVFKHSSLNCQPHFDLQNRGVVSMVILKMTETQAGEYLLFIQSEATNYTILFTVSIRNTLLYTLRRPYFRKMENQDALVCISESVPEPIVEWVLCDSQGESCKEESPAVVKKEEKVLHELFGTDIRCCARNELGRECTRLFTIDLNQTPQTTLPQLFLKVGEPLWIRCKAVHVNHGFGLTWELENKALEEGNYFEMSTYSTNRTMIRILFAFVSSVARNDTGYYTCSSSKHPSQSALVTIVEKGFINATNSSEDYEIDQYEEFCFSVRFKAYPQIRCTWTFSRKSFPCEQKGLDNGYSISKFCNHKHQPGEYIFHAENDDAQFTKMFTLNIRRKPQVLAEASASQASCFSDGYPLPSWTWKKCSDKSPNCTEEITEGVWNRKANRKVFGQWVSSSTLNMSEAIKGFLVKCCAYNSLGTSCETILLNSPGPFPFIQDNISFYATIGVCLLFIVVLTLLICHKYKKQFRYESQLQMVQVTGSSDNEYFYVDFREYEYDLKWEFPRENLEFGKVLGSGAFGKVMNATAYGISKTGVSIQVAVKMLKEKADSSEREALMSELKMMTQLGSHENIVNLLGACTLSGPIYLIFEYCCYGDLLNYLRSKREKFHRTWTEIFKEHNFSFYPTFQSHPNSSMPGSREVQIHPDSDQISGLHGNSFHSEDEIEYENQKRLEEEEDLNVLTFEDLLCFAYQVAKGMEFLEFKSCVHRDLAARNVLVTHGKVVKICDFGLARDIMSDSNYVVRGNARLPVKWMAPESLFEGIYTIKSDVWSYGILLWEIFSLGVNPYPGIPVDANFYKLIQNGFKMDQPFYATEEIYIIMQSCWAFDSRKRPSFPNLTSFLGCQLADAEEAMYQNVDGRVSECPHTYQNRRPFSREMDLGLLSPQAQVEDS
# Sequence of VEGFR2 (P35968 20-1356, species assumed): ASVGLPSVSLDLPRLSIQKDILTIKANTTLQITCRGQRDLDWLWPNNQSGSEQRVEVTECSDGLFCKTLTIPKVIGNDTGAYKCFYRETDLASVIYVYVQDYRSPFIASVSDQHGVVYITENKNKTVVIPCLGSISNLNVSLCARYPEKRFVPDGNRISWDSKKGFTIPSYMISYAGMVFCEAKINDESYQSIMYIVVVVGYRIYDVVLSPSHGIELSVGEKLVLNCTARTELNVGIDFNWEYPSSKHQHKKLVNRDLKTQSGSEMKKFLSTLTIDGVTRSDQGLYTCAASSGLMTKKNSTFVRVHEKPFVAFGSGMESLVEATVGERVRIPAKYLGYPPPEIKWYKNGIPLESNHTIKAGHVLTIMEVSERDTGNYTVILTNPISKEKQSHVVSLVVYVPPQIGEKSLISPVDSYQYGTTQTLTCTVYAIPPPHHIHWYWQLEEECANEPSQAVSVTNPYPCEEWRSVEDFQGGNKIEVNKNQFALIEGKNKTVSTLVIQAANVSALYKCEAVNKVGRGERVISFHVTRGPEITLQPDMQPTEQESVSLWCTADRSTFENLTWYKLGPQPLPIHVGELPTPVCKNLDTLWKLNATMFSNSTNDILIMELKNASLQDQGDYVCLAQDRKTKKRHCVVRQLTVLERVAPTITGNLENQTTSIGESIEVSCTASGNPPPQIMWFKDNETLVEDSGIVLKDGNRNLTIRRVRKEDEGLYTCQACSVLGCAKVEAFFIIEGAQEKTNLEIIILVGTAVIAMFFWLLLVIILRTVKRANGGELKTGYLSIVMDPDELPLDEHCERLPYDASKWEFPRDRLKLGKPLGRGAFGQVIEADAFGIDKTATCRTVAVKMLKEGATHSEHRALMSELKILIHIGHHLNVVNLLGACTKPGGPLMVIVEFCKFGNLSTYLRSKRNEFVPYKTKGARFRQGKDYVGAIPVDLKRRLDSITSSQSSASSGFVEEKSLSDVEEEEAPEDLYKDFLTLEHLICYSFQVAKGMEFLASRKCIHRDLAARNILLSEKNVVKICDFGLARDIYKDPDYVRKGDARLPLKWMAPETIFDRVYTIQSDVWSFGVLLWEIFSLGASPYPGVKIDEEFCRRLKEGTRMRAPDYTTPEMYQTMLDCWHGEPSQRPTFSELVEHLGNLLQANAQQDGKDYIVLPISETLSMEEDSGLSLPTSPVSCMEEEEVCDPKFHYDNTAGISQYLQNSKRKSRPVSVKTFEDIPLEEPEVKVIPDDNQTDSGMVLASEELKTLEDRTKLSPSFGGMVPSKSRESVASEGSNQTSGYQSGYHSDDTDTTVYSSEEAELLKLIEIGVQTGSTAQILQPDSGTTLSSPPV
IC50 [1],IC50 [2],IC50 [3],AUC(0-t) [4],MRT inf [4],clearance [4],half-life [4],Vd [4],IC50 [5],IC50 [6],IC50 [7],IC50 [8],IC50 [9],IC50 [10],IC50 [11],SMILES
2.4 nM,56 nM,110 nM,2040 ng·h/mL,20.4 min,25.2 mL/min/kg,28.2 min,0.525 L/kg,27 nM,106 nM,> 1000 nM,381 nM,> 500000 nM,> 500000 nM,576 nM,CNC(=O)c1cc2c(Oc3ccc(NC(=O)Nc4cnn(C)c4)cc3F)ccnc2cc1OC [Compound of Formula Ia]
3 nM,84 nM,165 nM,1600 ng·h/mL,49.2 min,30.5 mL/min/kg,134 min,1.48 L/kg,37 nM,290 nM,> 1000 nM,555 nM,> 200000 nM,> 200000 nM,890 nM,COc1cc2nccc(Oc3ccc(NC(=O)Nc4cnn(C)c4)cc3F)c2cc1C(N)=O [Compound of Formula Ib]
11 nM,34 nM,151 nM,–,–,–,–,–,42 nM,204 nM,> 1000 nM,831 nM,> 200000 nM,> 200000 nM,708 nM,COc1cc2nccc(Oc3ccc(NC(=O)Nc4cn[nH]c4)cc3F)c2cc1C(N)=O [Compound of Formula Ic]
–,–,–,–,–,–,–,–,–,–,–,–,> 400000 nM,10600 nM,–,"CNC(=O)c1cc(Oc2ccc(NC(=O)Nc3ccc(Cl)c(C(F)(F)F)c3)c(F)c2)ccn1 [Regorafenib, regorafenib, reference compound]"
